# Assay results as given in patent US11932658B2 (BRISTOL-MYERS SQUIBB COMPANY, priority 2016, dated 2024).
# Target: T1, PAR4 (Homo sapiens, UniProt Q96RI0)
# T1 construct: expressed in transfected cells; host or cells: HEK293 PAR4 Clone 1.2A (BMS Arctic ID 383940)
# T1 sequence (Q96RI0 18-385): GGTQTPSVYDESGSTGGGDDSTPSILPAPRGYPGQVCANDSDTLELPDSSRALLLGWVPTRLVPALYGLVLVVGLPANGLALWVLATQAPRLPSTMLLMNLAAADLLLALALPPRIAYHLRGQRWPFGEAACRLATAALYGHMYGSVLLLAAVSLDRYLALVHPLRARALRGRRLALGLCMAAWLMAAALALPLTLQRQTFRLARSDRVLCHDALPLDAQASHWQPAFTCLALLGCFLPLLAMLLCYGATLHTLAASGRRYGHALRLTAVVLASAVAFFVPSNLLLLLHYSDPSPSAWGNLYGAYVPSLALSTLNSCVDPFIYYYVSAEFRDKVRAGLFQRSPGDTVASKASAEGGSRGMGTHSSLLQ
# Experiment: PAR4 FLIPR assay (antagonism of agonist peptide-induced calcium mobilization)
# Assay type: cell-based
# Outline: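 Antagonism was taken as block of calcium mobilization evoked by the agonist peptide H-Ala-Phe(4-F)-Pro-Gly-Trp-Leu-Val-Lys-Asn-[…]-NH2, added after 30 min room-temperature compound preincubation in dye-loaded PAR4-transfected HEK293 cells (endogenous PAR1). Fluorescence was read on FDSS, with compound addition alone used as the agonist counter-screen; values come from 11-point concentration-response curves.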
row,IC50,Structure (SMILES)
1,15 nM,"COc1cnc2c(-c3nc4c(C)cc5c(c4s3)OCC(COC(=O)Nc3cncc(C(N)=O)c3)O5)cc(C)cc2n1 (stereo not drawn) [Example 77, (2-(2-methoxy-7-methylquinoxalin-5-yl)-4-methyl-7,8-dihydro-[1,4]dioxino [2′,3′:3,4]benzo[1,2-d]thiazol-7-yl)methyl (5-carbamoylpyridin-3-yl)carbamate]"
2,3.1 nM,"COc1cnc2c(-c3nc4ccc5c(c4s3)CC(CNC(=O)OCC(C)C)O5)cc(C)cc2n1 (stereo not drawn) [Example 198, Isobutyl ((2-(2-methoxy-7-methylquinoxalin-5-yl)-7,8-dihydrobenzofuro[5,4-d]thiazol-7-yl)methy 1)carbamate]"
3,2.5 nM,"COc1cnc2c(-c3nc4c(Cl)cc5c(c4s3)OC[C@H](COC(=O)Nc3cnc(F)c(C)c3)O5)cc(C)cc2n1 [Example 64, (R)-(4-chloro-2-(2-methoxy-7-methylquinoxalin-5-yl)-7,8-dihydro-[1,4]dioxino [2′,3′:3,4]benzo[1,2-d]thiazol-7-yl)methyl (6-fluoro-5-methylpyridin-3-yl)carbamate]"
4,8.1 nM,"COc1cnc2c(-c3nc4cc(F)c5c(c4s3)C[C@@H](CNC(=O)N3CCOCC3)O5)cc(C)cc2n1 [Example 258, (S)-N-((5-fluoro-2-(2-methoxy-7-methylquinoxalin-5-yl)-7,8-dihydrobenzofuro[5,4-d]thiazol-7-yl)methyl)morpholine-4-carboxamide]"
5,1.1 nM,"COc1cnc2c(-c3nc4c(C)cc5c(c4s3)OCC(COC(=O)Nc3ccnc(-c4ccccc4)c3)O5)cc(C)cc2n1 (stereo not drawn) [Example 117, (2-(2-methoxy-7-methylquinoxalin-5-yl)-4-methyl-7,8-dihydro-[1,4]dioxino[2′,3′:3,4]benzo[1,2-d]thiazol-7-yl)methyl (2-phenylpyridin-4-yl)carbamate]"
6,0.9 nM,"COc1cnc2c(-c3nc4c(C)cc5c(c4s3)OCC(COC(=O)Nc3ccc(C)nc3)O5)cc(C)cc2n1 (stereo not drawn) [Example 120, (2-(2-methoxy-7-methylquinoxalin-5-yl)-4-methyl-7,8-dihydro-[1,4]dioxino[2′,3′:3,4]benzo[1,2-d]thiazol-7-yl)methyl (6-methylpyridin-3-yl)carbamate]"
7,7.8 nM,"COc1cnc2c(-c3nc4cc(F)c5c(c4s3)[C@@H](C)[C@H](CO)O5)cc(C)cc2n1 (single isomer, unassigned) [Example 201]"
8,2.3 nM,"COc1cnc2c(-c3nc4ccc5c(c4s3)OC[C@H](COC(=O)Nc3ccc(C)nc3)O5)cc(C)cc2n1 [Example 102, (R)-(2-(2-methoxy-7-methylquinoxalin-5-yl)-7,8-dihydro-[1,4]dioxino[2′,3′:3,4]benzo[1,2-d]thiazol-7-yl)methyl (6-methylpyridin-3-yl)carbamate]"
9,7.9 nM,"COc1cncc(NC(=O)OC[C@H]2COc3c(cc(C)c4nc(-c5cc(C)cc6nc(OC)cnc56)sc34)O2)c1 [Example 43, (R)-(2-(2-methoxy-7-methylquinoxalin-5-yl)-4-methyl-7,8-dihydro-[1,4]dioxino[2′,3′:3,4]benzo[1,2-d]thiazol-7-yl)methyl (5-methoxypyridin-3-yl)carbamate]"
10,3.1 nM,"COc1ccc(NC(=O)OCC2Cc3c(cc(Cl)c4nc(-c5cc(C)cc6nc(OC)cnc56)sc34)O2)cn1 (stereo not drawn) [Example 17, (4-chloro-2-(2-methoxy-7-methylquinoxalin-5-yl)-7,8-dihydrobenzofuro[5,4-d]thiazol-7-yl)methyl (6-methoxypyridin-3-yl)carbamate]"
11,12 nM,"COc1cnc2c(-c3nc4c(C)cc5c(c4s3)OCC(COC(=O)Nc3ccc(F)nc3)O5)cc(Cl)cc2n1 (stereo not drawn) [Example 96, (2-(7-chloro-2-methoxyquinoxalin-5-yl)-4-methyl-7,8-dihydro-[1,4]dioxino[2′,3′:3,4]benzo[1,2-d]thiazol-7-yl)methyl (6-fluoropyridin-3-yl)carbamate]"
12,1.3 nM,"COc1cnc2c(-c3nc4cc(F)c5c(c4s3)[C@H](C)[C@@H](CO)O5)cc(C)cc2n1 [Example 238, ((7S,8S)-5-fluoro-2-(2-methoxy-7-methylquinoxalin-5-yl)-8-methyl-7,8-dihydrobenzofuro[5,4-d]thiazol-7-yl)methanol]"
13,6.6 nM,"COc1cnc2c(-c3nc4ccc5c(c4s3)C[C@@H](CNC(=O)OCc3ccncc3)O5)cc(C)cc2n1 [Example 233, (S)-pyridin-4-ylmethyl ((2-(2-methoxy-7-methylquinoxalin-5-yl)-7,8-dihydrobenzofuro[5,4-d]thiazol-7-yl)methy 1)carbamate]"
14,20 nM,"C=Cc1cc(-c2nc3c(C)cc4c(c3s2)OCC(COC(=O)Nc2cccnc2)O4)c2ncc(OC)nc2c1 (stereo not drawn) [Example 89, (2-(2-methoxy-7-vinylquinoxalin-5-yl)-4-methyl-7,8-dihydro-[1,4]dioxino[2′,3′:3,4]benzo [1,2-d]thiazol-7-yl)methyl pyridin-3-ylcarbamate]"
15,16 nM,"COc1cnc2c(-c3nc4c(C)cc5c(c4s3)OC[C@H](COC(=O)Nc3cncc(C#N)c3)O5)cc(C)cc2n1 [Example 51, (R)-(2-(2-methoxy-7-methylquinoxalin-5-yl)-4-methyl-7,8-dihydro-[1,4]dioxino[2′,3′:3,4]benzo[1,2-d]thiazol-7-yl)methyl (5-cyanopyridin-3-yl)carbamate]"
16,1.1 nM,"COc1cnc2c(-c3nc4cc(F)c5c(c4s3)C[C@@](C)(CO)O5)cc(C)cc2n1 [Example 172, (S)-(5-fluoro-2-(2-methoxy-7-methylquinoxalin-5-yl)-7-methyl-7,8-dihydrobenzofuro[5,4-d]thiazol-7-yl)methanol]"
17,29 nM,"COc1cnc2c(-c3nc4c(F)cc5c(c4s3)OC[C@H](COC(=O)Nc3cccnc3)O5)cc(CO)cc2n1 [Example 83, (R)-(4-fluoro-2-(7-(hydroxymethyl)-2-methoxyquinoxalin-5-yl)-7,8-dihydro-[1,4]dioxino [2′,3′:3,4]benzo[1,2-d]thiazol-7-yl)methyl pyridin-3-ylcarbamate]"
18,12 nM,"COc1cnc2c(-c3nc4c(F)cc5c(c4s3)OC[C@H](COC(=O)Nc3ccncc3)O5)cc(C)cc2n1 [Example 73, (R)-(4-fluoro-2-(2-methoxy-7-methylquinoxalin-5-yl)-7,8-dihydro-[1,4]dioxino[2′,3′:3,4]benzo[1,2-d]thiazol-7-yl)methyl pyridin-4-ylcarbamate]"
19,3.9 nM,"COc1cnc2c(-c3nc4cc(F)c5c(c4s3)C[C@@H](COC(=O)Nc3cnc(C)nc3)O5)cc(C)cc2n1 [Example 151, (S)-(5-fluoro-2-(2-methoxy-7-methylquinoxalin-5-yl)-7,8-dihydrobenzofuro[5,4-d]thiazol-7-yl)methyl (2-methylpyrimidin-5-yl)carbamate]"
20,1.6 nM,"COc1cnc2c(-c3nc4ccc5c(c4s3)OC[C@H](COC(=O)Nc3cnc(OCCO)nc3)O5)cc(Cl)cc2c1 [Example 287, (R)-(2-(6-chloro-3-methoxyquinolin-8-yl)-7,8-dihydro-[1,4]dioxino[2′,3′:3,4]benzo[1,2-d]thiazol-7-yl)methyl (2-(2-hydroxyethoxy)pyrimidin-5-yl)carbamate]"

row,Structure (SMILES),IC50
1,"COc1cnc2c(-c3nc4cc(F)c5c(c4s3)C[C@@H](CNC(=O)Oc3ccc(C)cc3)O5)cc(C)cc2n1 [Example 213, (S)-p-tolyl ((5-fluoro-2-(2-methoxy-7-methylquinoxalin-5-yl)-7,8-dihydrobenzofuro[5,4-d]thiazol-7-yl)methyl)carbamate]",3.6 nM
